From EP1379634B1 (THE UNIVERSITY OF GEORGIA RESEARCH FOUNDATION, INC., priority 2001, dated 2002)
Residues, ends and D or L forms follow the SMILES beside them. *: point of attachment. AFC = O=c1cc(C(F)(F)F)c2ccc(N*)cc2o1; Cbz = O=C(OCc1ccccc1)*; CH2F = FC*

Legend:
Trypsin = test: Selectivity test (Steps VI and IX), Trypsin; format: biochemical, human; settings: pH 8.0, substrate Z-R-AFC
Protocol: (§1) In order to perform the assay, the vehicle (for Step VI) or inhibitor (for Step IX) were incubated with the appropriate substrate in the correct assay buffer and allowed to equilibrate. Subsequently, the protease was added, and the assay was allowed to incubate for an appropriate time. The concentrations used in this experiment were as follows: Vehicle was set up at 4 X 10^-5 M in final assay buffer; Inhibitor was set up at 3 X 10^-10 M in the final assay buffer. Preferably the dosages employed should be the minimal amount of vehicle or inhibitor necessary to induce inhibition. […] Substrates were set up based upon the preferred substrate for cleavage of the particular enzyme.
(§2) Positive controls were set up similarly as described for test controls, except that a solvent blank was added in substitution for the inhibitor or vehicle (in a volume equal to the volume of inhibitor or vehicle addition). All of the inhibitors and vehicles could be dissolved in dimethylsulfoxide (DMSO), and therefore, this was the solvent of choice. Negative controls were set up by adding the inhibitor or vehicle and the preferred substrates in a tube without the protease. All potential non-proteolytic liberation of AFC was therefore controlled for in this tube.
(§3) All controls were set up in triplicate, and experiments were repeated a minimum of five times.
(§4) Percent inhibition was calculated as: %Inhibition = ((AFC positive for "SI"−AFC negative for "SI")−(AFC test−AFC negative for "SI"))/(AFC positive for "SI"−AFC negative for "SI") × 100 [formula]
(§5) In this preliminary test, we employed the following human-derived enzymes (with indicated mechanistic class in parentheses): Cathepsin B (cysteine), Cathepsin L (cysteine), Cathepsin H (cysteine), Cathepsin D (aspartic), Trypsin (serine), the purified Taenia solium cysteine protease, and the Taenia solium crude mix. Cathepsin B was prepared in an assay buffer of 10 mM L-cysteine in 0.4 M Citrate buffer, pH 6.1, using Z-ARR-AFC as the cleavage substrate. Cathepsin L was prepared in an assay buffer of 10 mM L-cysteine in 0.4 M Citrate buffer, pH 5.5, using Z-FR-AFC as the cleavage substrate. Cathepsin H was prepared in an assay buffer of 10 mM L-cysteine in 0.15 M PBS buffer, pH 6.8, using L-R-AFC as the cleavage substrate. Cathepsin D was prepared in an assay buffer of 0.15 M PBS, pH 7.1, using Z-RGFFP-AFC as the cleavage substrate. Trypsin was prepared in an assay buffer of 0.15 M PBS, pH 8.0, supplemented with 100 mM CaCl2 and with Z-R-AFC as the cleavage substrate. Enzyme was incubated so that it was at least 50 times less than the concentration of substrate in order to insure saturating conditions.

Cathepsin L = Cathepsin L (Homo sapiens, UniProt P07711); test: Selectivity test (Steps VI and IX), Cathepsin L; format: biochemical; settings: pH 5.5, substrate Z-FR-AFC
Protocol: as §1, §2, §3, §4, §5

Cathepsin H = biological target: T1, Cathepsin H (Homo sapiens, UniProt P09668); test: Selectivity test (Steps VI and IX), Cathepsin H; format: biochemical; settings: vehicle 4 X 10^-5 M; pH 6.8, substrate L-R-AFC; 40 µM
T1 sequence (P09668 98-335): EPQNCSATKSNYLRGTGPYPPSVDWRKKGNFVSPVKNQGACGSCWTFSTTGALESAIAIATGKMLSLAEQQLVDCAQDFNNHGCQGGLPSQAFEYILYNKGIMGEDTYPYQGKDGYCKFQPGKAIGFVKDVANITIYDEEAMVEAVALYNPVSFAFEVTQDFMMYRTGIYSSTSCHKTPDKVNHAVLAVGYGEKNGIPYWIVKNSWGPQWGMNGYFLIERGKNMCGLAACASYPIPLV
Protocol: as §1
as §2, with “All potential non-proteolytic liberation of AFC was therefore controlled for in this tube.” left out
(§6) Percent inhibition was calculated as: %Inhibition = ((AFC positive for "SI"−AFC negative for "SI")−(AFC test−AFC negative for "SI"))/(AFC positive for "SI"−AFC negative for "SI") × 100 [formula] […]

Cathepsin B = Cathepsin B (Homo sapiens, UniProt P07858); test: Selectivity test (Steps VI and IX), Cathepsin B; format: biochemical; settings: vehicle 4 X 10^-5 M; pH 6.1, substrate Z-ARR-AFC; 40 µM
Protocol: as §1
as §2, with “All potential non-proteolytic liberation of AFC was therefore controlled for in this tube.” left out
as §6

[1] = inhibitor 3 X 10^-10 M, 0.0003 µM

Chain of Cathepsin L (P07711 114-333): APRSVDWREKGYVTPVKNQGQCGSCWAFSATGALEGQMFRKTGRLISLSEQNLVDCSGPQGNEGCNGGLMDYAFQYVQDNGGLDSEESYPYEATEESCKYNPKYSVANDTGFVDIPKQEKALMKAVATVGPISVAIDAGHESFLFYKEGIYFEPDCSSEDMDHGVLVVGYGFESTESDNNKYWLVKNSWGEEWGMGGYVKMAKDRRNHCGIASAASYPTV

`CC(C)C[C@H](NC(=O)OCc1ccccc1)C(=O)N[C@@H](CC(C)C)C(=O)N[C@@H](CC(C)C)C(=O)Nc1ccc2c(C(F)(F)F)cc(=O)oc2c1` [Z-LLL-AFC, Z-Leu-Leu-Leu-AFC] (Cbz-Leu-Leu-Leu-{AFC}) was tested, and the “% inhibition” value (Trypsin; vehicle 4 X 10^-5 M, 40 µM) was 0%.
`CC(C)C[C@H](NC(=O)OCc1ccccc1)C(=O)N[C@@H](CC(C)C)C(=O)N[C@@H](Cc1ccc(O)cc1)C(=O)Nc1ccc2c(C(F)(F)F)cc(=O)oc2c1` [Z-LLY-AFC, Z-Leu-Leu-Tyr-AFC] (Cbz-Leu-Leu-Tyr-{AFC}) was tested, and the “% inhibition” value (Trypsin; vehicle 4 X 10^-5 M, 40 µM) was 0%.
With `CC(C)C[C@H](NC(=O)OCc1ccccc1)C(=O)N[C@@H](CC(C)C)C(=O)N[C@@H](Cc1ccc(O)cc1)C(=O)CF` [Z-LLY-FMK, Z-Leu-Leu-Tyr-FMK] (Cbz-Leu-Leu-Tyr-CH2F) the “% inhibition” value (Cathepsin L; [1]) was “did not inhibit cathepsin L at all” and the “% inhibition” value (Trypsin; [1]) was 0%.
For Mu-Leu-Tyr-AFC [Mu-LY-AFC], the “% inhibition” value (Cathepsin L; vehicle 4 X 10^-5 M) was 25%, the “% inhibition” value (Cathepsin L; vehicle 4 X 10^-5 M, 40 µM) was “subtle inhibition” and the “% inhibition” value (Cathepsin H) was 0%. The “% inhibition” value (Trypsin; vehicle 4 X 10^-5 M, 40 µM) was 0% and the “% inhibition” value (Cathepsin B) was 0%.
